Measurements: paper PMC4519324, “Substrate Specificity, Inhibitor Selectivity and Structure-Function Relationships of Aldo-Keto Reductase 1B15: A Novel Human Retinaldehyde Reductase” (PLoS ONE, 2015)
Read-outs that look alike come from different tables or passages of the source.

Experiments:
AKR1B10 [1] = target: T1, AKR1B10 (Homo sapiens, UniProt O60218); conditions: cited from earlier work
T1 construct: made in house

AKR1B1 [2] = target: T2, AKR1B1 (Homo sapiens, UniProt P15121); conditions: cited from earlier work
T2 construct: made in house

AKR1B15 [3] = target: T3, AKR1B15 (Homo sapiens, UniProt C9JRZ8); experiment: Inhibition screening with D,L-glyceraldehyde as substrate; assay type: biochemical; conditions: for IC50: 6 mM D,L-glyceraldehyde as substrate, 0.1% DMSO
T3 construct: made in house; host or cells: E. coli BL21(DE3), with or without chaperone plasmids pBB540/pBB542
Protocol: (§1) Activities were determined in 100 mM sodium phosphate, pH 7.0, at 25°C, using 0.2 mM NADPH in 0.2-cm path length cuvettes, with freshly prepared substrate solutions. One unit of activity is defined as the amount of enzyme required to transform 1 μmol of substrate per min at 25°C.
(§2) All compounds tested as inhibitors were dissolved in DMSO and assayed in a final concentration of 0.1% (v/v) DMSO using 6 mM D,L-glyceraldehyde as a substrate. Kinetic constant and IC50 (compound concentration that inhibits enzymatic activity by 50%) values were calculated by fitting the initial rates to the appropriate equation using Grafit 5.0 (Eritacus Software) and values were given as the mean ± standard error of three experiments. Standard error values were less than 20% of the mean values.

AKR1B15 [4] = target: T3, AKR1B15; experiment: Spectrophotometric activity assay (NADPH decrease at 340 nm), substrate kinetics; assay type: biochemical; conditions: for Km / k cat: substrate, spectrophotometric, 0.2 mM NADPH; for Km: 100 mM sodium phosphate pH 7.0, 25°C, <1 values only approximate; for k cat: pH 7.0, 25°C
AKR1B10 [5] = target: T1, AKR1B10; conditions: substrate; cited from earlier work
AKR1B1 [6] = target: T2, AKR1B1; conditions: substrate, cited from earlier work; for Km: read-out: Km
AKR1B10 [7] = target: T1, AKR1B10; experiment: Spectrophotometric activity assay (NADPH decrease at 340 nm), substrate kinetics; assay type: biochemical; conditions: substrate, spectrophotometric
AKR1B1 [8] = target: T2, AKR1B1; experiment: as above; assay type: biochemical
Protocol: as §1, §2

CC(C)=CCC/C(C)=C/C=O = experiment: as above; assay type: biochemical, human; conditions: other: AKR1B1, pH 7.0, 25.0 °C
Protocol: as §1, §2

CC(=O)CC(C)=O = experiment: as above; assay type: biochemical, human; conditions: other: AKR1B1, pH 7.0, 25.0 °C
Protocol: as §1, §2

CCC(=O)CC(=O)CC = experiment: as above; assay type: biochemical, human; conditions: other: AKR1B1, pH 7.0, 25.0 °C
Protocol: as §1, §2

T3 sequence (C9JRZ8 whole entry): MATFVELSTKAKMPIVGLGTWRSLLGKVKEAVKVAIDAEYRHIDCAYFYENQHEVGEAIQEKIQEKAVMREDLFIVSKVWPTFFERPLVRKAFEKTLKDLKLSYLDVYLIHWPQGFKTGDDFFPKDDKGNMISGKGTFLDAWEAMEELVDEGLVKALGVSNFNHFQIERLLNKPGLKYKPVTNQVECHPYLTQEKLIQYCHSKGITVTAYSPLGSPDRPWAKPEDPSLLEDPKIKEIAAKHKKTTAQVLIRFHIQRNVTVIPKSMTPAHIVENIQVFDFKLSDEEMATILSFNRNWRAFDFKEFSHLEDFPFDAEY
T1 sequence (O60218 whole entry): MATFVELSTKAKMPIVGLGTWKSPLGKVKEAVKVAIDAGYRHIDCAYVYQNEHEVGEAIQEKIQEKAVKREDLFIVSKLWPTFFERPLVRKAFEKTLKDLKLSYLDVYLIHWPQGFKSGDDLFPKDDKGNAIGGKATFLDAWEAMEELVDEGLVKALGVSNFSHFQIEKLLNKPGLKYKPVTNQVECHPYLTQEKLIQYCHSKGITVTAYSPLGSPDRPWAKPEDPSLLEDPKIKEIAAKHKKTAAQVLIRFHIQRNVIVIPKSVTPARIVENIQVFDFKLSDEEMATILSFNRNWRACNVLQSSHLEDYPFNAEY

Compound	Km (AKR1B10 [5])	k cat (min^−1) (AKR1B10 [5])	Km (AKR1B1 [6])	k cat (min^−1) (AKR1B1 [6])	Km (AKR1B15 [4]; read-out: Km)	k cat (AKR1B15 [4])	other results
C[C@H](CCC(=O)O)[C@H]1CC[C@H]2[C@@H]3CC[C@@H]4C[C@H](O)CC[C@]4(C)[C@H]3CC[C@]12C [Lithocholic acid]	–	–	–	–	–	–	IC50 (AKR1B10 [1]; AKR1B10): 0.12 µM; selectivity between AKR1B10 and AKR1B1 (AKR1B10 [1]; in words): more selective against AKR1B10; IC50 (AKR1B1 [2]; AKR1B1): 7.2 µM; IC50 (AKR1B15 [3]): 16.3 ± 7.6 µM
NC(=O)C1=CN([C@@H]2O[C@H](COP(=O)(O)OP(=O)(O)OC[C@H]3O[C@@H](n4cnc5c(N)ncnc54)[C@H](O)[C@@H]3O)[C@@H](O)[C@H]2O)C=CC1 [NADH]	–	–	–	–	–	–	enzymatic activity relative to that with NADPH (AKR1B15 [4]; 0.2 mM NADH): less than 5%
CC1(C)CC[C@]2(C(=O)O)CC[C@]3(C)C(=CC[C@@H]4[C@@]5(C)CC[C@H](O)C(C)(C)[C@@H]5CC[C@]43C)[C@@H]2C1 [Oleanolic acid]	–	–	–	–	–	–	IC50 (AKR1B15 [3]): > 100 µM
CCCCCCCCCCCC(=O)N(C)CC(=O)[O-].[Na+] [Sarkosyl, sodium N-lauroylsarcosinate]	–	–	–	–	–	–	inhibition model (AKR1B15 [3]; data not shown): non-competitive
O=C1NC(=O)[C@@]2(CCOc3ccc(F)cc32)N1 [Sorbinil]	–	–	–	–	–	–	IC50 (AKR1B15 [3]): > 100 µM
CC1=C(CC(=O)O)c2cc(F)ccc2/C1=C\c1ccc([S+](C)[O-])cc1 (stereo not shown) [Sulindac]	–	–	–	–	–	–	IC50 (AKR1B10 [1]; AKR1B10, values in Table 3): < 10 µM; IC50 (AKR1B1 [2]; AKR1B1, values in Table 3): < 10 µM; IC50 (AKR1B15 [3]): > 100 µM
C=CC=O [acrolein]	110 µM	116 ^c min^−1	884 µM	11 ^c min^−1	36 µM	0.147 s⁻¹	–
O=Cc1ccccc1 [benzaldehyde]	9.7 µM	104 ^b min^−1	21 µM	91 ^b min^−1	–	0.202 s⁻¹	Km (AKR1B15 [4]): < 1 µM
O=C/C=C/c1ccccc1 [cinnamaldehyde]	–	–	–	–	< 1 µM	0.222 s⁻¹	k cat (AKR1B10 [7]): 4 s⁻¹; Km (AKR1B10 [7]; read-out: Km): 34.7 µM; Km (AKR1B1 [8]; substrate, spectrophotometric): 31 µM; k cat (AKR1B1 [8]; substrate, spectrophotometric): 0.483 s⁻¹
CC(C)=CCCC(C)=CCCC(C)=CC=O [farnesal]	2.3 µM	30 ^b min^−1	37 µM	27 ^b min^−1	< 1 µM	0.08 s⁻¹	–
OC[C@H]1OC(O)[C@H](O)[C@@H](O)[C@@H]1O (stereo partly shown) [glucose]	–	–	–	–	–	–	rate of reduction (AKR1B15 [4]; 200 mM glucose): 12 mU/mg; rate of reduction (AKR1B1 [8]; 200 mM glucose): 500 mU/mg
CCCCCC=O [hexanal]	112 µM	142 ^b min^−1	5 µM	28 ^b min^−1	3.1 µM	0.122 s⁻¹	–
O=Cc1cccnc1 [pyridine-3-aldehyde]	13 µM	150 ^b min^−1	10 µM	61 ^b min^−1	2.9 µM	0.15 s⁻¹	–
CCC/C=C/C=O [trans-2-hexenal]	28 µM	49 ^b min^−1	9 µM	16 ^b min^−1	5 µM	0.188 s⁻¹	–
AKR1B1 (Homo sapiens)	–	–	–	–	–	–	Km (CC(C)=CCC/C(C)=C/C=O): 35 µM; kcat (CC(C)=CCC/C(C)=C/C=O): 1.13 s⁻¹; kcat/Km (CC(C)=CCC/C(C)=C/C=O): 29200 M⁻¹ s⁻¹; Km (CC(=O)CC(C)=O): 8,100 μM; kcat (CC(=O)CC(C)=O): 0.278 s⁻¹; kcat/Km (CC(=O)CC(C)=O): 36.7 M⁻¹ s⁻¹; Km (CCC(=O)CC(=O)CC): 12,000 μM; kcat (CCC(=O)CC(=O)CC): 0.433 s⁻¹; kcat/Km (CCC(=O)CC(=O)CC): 36.7 M⁻¹ s⁻¹
